Experimental data as given in patent US12187722B2, “Small molecule inhibitors of TEAD transcription factors” (The General Hospital Corporation, priority 2019, dated 2025).

The compounds below were run against TEAD2 (Homo sapiens (Human), UniProt Q15562) (assay: In vitro palmitoylation (TEAD2 autopalmitoylation, streptavidin blot)). Details: compound at 10 μM; Table 2.
Type: biochemical
Description: Recombinant GST-TEAD2 or His6TEAD2 (500 ng) protein was pre-incubated with the compounds at indicated concentrations for 15 min. and then incubated with 1 μM of alkyne palmitoyl-5 CoA (Cayman Chemical) for 30 min or 50 mM MES, pH 6.4, followed by Click reaction with biotin-azide as previously described (Zheng, B. et al., J. Am. Chem. Soc., 2013, 135, 7082-7085). Click reaction was performed with 100 μM biotin-azide, 1 mM tris(2-carboxyethyl) phosphine hydrochloride (TCEP), 100 μM tris[(1-benzyl-1H-1,2,3-triazol-4-yl) methyl] amine (TBTA) and 1 mM CuSO4 for 1 h at RT.
The reactions were terminated by the addition of 12 μL of 6×SDS-sample loading buffer (50 mM Tris-HCl, pH 6.8, 6% SDS, 48% Glycerol, 0.03% Bromophenol Blue, 30 mM EDTA, 9% MeSH). Samples were analysed by SDS-PAGE and Western blot was performed by probing with streptavidin HRP and histidine HRP antibodies independently. Bands intensity obtained from streptavidin blot were quantified using BIORAD, Gel doc system and the percentage of inhibition of Tead2 auto palmitoylation is determined by comparing to the DMSO control treated samples.
These compounds were tested for activity in inhibiting TEAD2 palmitoylation in the assay described above.

Sequence of TEAD2 (Q15562 whole entry): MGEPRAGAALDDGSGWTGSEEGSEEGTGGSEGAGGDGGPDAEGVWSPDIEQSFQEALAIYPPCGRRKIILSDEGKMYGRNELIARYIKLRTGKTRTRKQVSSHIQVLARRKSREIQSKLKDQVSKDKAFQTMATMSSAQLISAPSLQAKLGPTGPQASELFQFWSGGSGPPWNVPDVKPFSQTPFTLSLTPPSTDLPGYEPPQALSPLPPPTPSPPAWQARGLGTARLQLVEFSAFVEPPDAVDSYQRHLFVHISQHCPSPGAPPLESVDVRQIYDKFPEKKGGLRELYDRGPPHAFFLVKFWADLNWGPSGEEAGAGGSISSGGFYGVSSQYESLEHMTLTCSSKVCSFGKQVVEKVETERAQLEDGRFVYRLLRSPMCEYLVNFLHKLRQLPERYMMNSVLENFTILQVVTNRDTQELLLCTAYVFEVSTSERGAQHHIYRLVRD

inhibition at 10 µM [%] | Structure (SMILES)
10 | COC(=O)c1ccccc1Nc1cccc(Nc2ccc(C34CC5CC(CC(C5)C3)C4)cc2)c1 [Compound 1]
0 | COC(=O)c1ccccc1Nc1ccc(Nc2ccc(C34CC5CC(CC(C5)C3)C4)cc2)cc1 [Compound 2]

Same assay, conditions: compound at 10 μM; Table 3

Structure (SMILES) | inhibition at 10 µM [%]
COc1ccc(Nc2cnc(Oc3ccc(C4CCCCC4)cc3Cl)cc2C)c(C(=O)O)c1 [CP-599] | 57
CNC(=O)c1cc(OC)ccc1Nc1ccc(N(C)c2ccc(C(F)(F)F)cc2)cc1 [CP-606] | 63
COc1ccc(Nc2ccc(N(C)c3ccc(C(F)(F)F)cc3)cc2)c(C(=O)N(C)C)c1 [CP-607] | 37
COc1ccc(Nc2ccc(N(C)c3ccc(C(F)(F)F)cc3)cc2)c(C#N)c1 [CP-608] | 43
COc1ccc(Nc2cnc(N(C)c3ccc(C4CCCCC4)cc3)cc2C)c(C(=O)O)c1 [CP-609] | 54
COc1ccc(Nc2cnc(Oc3ccc(C4CCCCC4)cc3Cl)nc2)c(C(=O)O)c1 [CP-616] | 73
COc1ccc(Nc2ccc(N(C)c3ccc(C(F)(F)F)c(Cl)c3)cc2)c(C(=O)O)c1 [CP-617] | 76
COc1ccc(Nc2ccc(N(C)c3cc(C4CCCCC4)nn3C)cc2)c(C(=O)O)c1 [CP-618] | 31
Cc1cc(N(C)c2ccc(C3CCCCC3)cc2)ccc1Nc1ccc(N2CCOCC2)cc1C(=O)O [CP-621] | 47
COc1ccc(Nc2ccc(C3CC3)cc2N(C)c2ccc(C3CCCCC3)cc2)c(C(=O)O)c1 [CP-623] | 73
Cc1cc(N(C)c2ccc(C3CCCCC3)cc2)ccc1Nc1ccc(N2CC3(COC3)C2)cc1C(=O)O [CP-627] | 51
COc1ccc(Nc2ccc(N(C)c3ccc(C4CCCCC4)cc3)cc2C)c(C(F)(F)F)c1 [CP-629] | 24
Cc1cc(N(C)c2ccc(C3CCCCC3)cc2)ccc1Nc1ccc(C2CC2)cc1C(=O)O [CP-630] | 39
Cc1ccc(Nc2ccc(N(C)c3ccc(C4CCCCC4)cc3)cc2C)c(C(=O)O)c1 [CP-631] | 81
CNC(=O)c1ccc(Nc2ccc(N(C)c3ccc(C4CCCCC4)cc3)cc2C)c(C(=O)O)c1 [CP-632] | 73
Cc1cc(N(C)c2ccc(C3CCCCC3)cc2)ccc1Nc1ccc(OCC(C)(C)C)cc1C(=O)O [CP-633] | 25
Cc1cc(N(C)c2ccc(C3CCCCC3)cc2)ccc1Nc1ccc(CN)cc1C(=O)O [CP-635] | 27

Structure (SMILES) | inhibition at 10 µM [%]
Cc1cc(N(C)c2ccc(C3CCCCC3)cc2)ccc1Nc1ccc(CN(C)C)cc1C(=O)O [CP-640] | 20
CN(c1ccc(C2CCCCC2)cc1)c1ccc(Nc2cccc(C(=O)O)n2)cn1 [CP-643] | 89
CN(c1ccc(Nc2cccc(C(=O)O)n2)cc1)c1ccc(C(F)(F)F)cc1 [CP-648] | 89
Cc1cc(N(C)c2ccc(C3CCCCC3)cc2)ncc1Nc1cccc(C(=O)O)n1 [CP-652] | 37
COc1ccc(Nc2ccc(N(C)c3ccc(C4CCCCC4)cc3)nc2)nc1C(=O)O [CP-654] | 36
CNS(=O)(=O)c1ccc(Nc2ccc(N(C)c3ccc(C4CCCCC4)cc3)cc2C)c(C#N)c1 [CP-657] | 18
O=C(O)c1cccc(Nc2cc(Nc3ccc(C4CCCCC4)cc3Cl)cc(C(F)(F)F)c2)n1 [CP-660] | 66
COc1ccc(Nc2cc(Nc3ccc(C4CCCCC4)cc3)cc(C(F)(F)F)c2)nc1C(=O)O [CP-661] | 77
O=C(O)c1cccc(Nc2cc(Nc3ccc(C4CCCCC4)cc3)cc(C(F)(F)F)c2)c1 [CP-662] | 88
O=C(Nc1ccc(C2CCCCC2)cc1)c1cccc(Nc2ccccc2C(=O)O)c1 [CP-664] | 50
O=C(Nc1ccc(C2CCCCC2)cc1Cl)c1cccc(Nc2ncccc2C(=O)O)c1 [CP-665] | 96
COc1ccc(Nc2cccc(C(=O)Nc3ccc(C4CCCCC4)cc3Cl)c2)c(C(=O)O)c1 [CP-669] | 75
Cc1cc(N(C)c2ccc(C3CCCCC3)cc2)ncc1Nc1ccc(OC2CC2)cc1C(=O)O [CP-673] | 15
O=C(O)c1cccnc1Nc1cccc(Nc2ccc(C3CCCCC3)cc2Cl)c1 [CP-677] | 96
N#Cc1cccc(Nc2ccc(Nc3ccc(C45CC6CC(CC(C6)C4)C5)cc3Cl)cc2)n1 [CP-688] | 17
CNS(=O)(=O)c1cccc(Nc2ccc(Nc3ccc(C45CC6CC(CC(C6)C4)C5)cc3Cl)cc2)n1 [CP-694] | 79

The next lines start with the values.

inhibition at 10 µM [%] | Structure (SMILES)
37 | COc1ccc(Nc2ccc(Oc3ccc(OC(F)(F)F)cc3Cl)nc2)c(C(=O)O)c1 [CP-600]
46 | COc1ccc(Nc2ccc(Oc3ccc(C(F)(F)F)cc3Cl)nc2)c(C(=O)O)c1 [CP-601]
5 | COc1ccc(Nc2cnc(N(C)c3ccc(C(F)(F)F)cc3)nc2)c(C(=O)O)c1 [CP-602]
83 | COc1ccc(Nc2ccc(N(C)c3ccc(C4CCC(C(F)(F)F)CC4)cc3)cc2)c(C(=O)O)c1 (stereo not shown) [CP-603]
47 | COc1ccc(Nc2ccc(N(C)c3ccc(C(F)(F)F)cc3)cc2)c(C(N)=O)c1 [CP-605]
86 | COc1ccc(Nc2ccc(N(C)c3cc(Cl)cc(Cl)c3)cc2)c(C(=O)O)c1 [CP-612]
83 | CN(c1ccc(Nc2ccc(NS(C)(=O)=O)cc2C(=O)O)cc1)c1ccc(C(F)(F)F)cc1 [CP-613]
83 | CNS(=O)(=O)c1ccc(Nc2ccc(N(C)c3ccc(C4CCCCC4)cc3)cc2C)c(C(=O)O)c1 [CP-614]
82 | COc1ccc(Nc2ccc(Oc3ccc(S(F)(F)(F)(F)F)cc3Cl)nc2)c(C(=O)O)c1 [CP-615]
0 | Cc1cc(N(C)c2ccc(C3CCCCC3)cc2)ccc1Nc1ccc(NC2CCOCC2)cc1C(=O)O [CP-620]
94 | COc1ccc(Nc2ccc(N(C)c3ccc(SC(F)(F)F)cc3)cc2)c(C(=O)O)c1 [CP-622]
15 | COc1ccc(Nc2ccc(N(C)c3cc(C(F)(F)F)nn3C)cc2)c(C(=O)O)c1 [CP-624]
87 | Cc1cc(N(C)c2ccc(C3CCCCC3)cc2)ccc1Nc1ccc(F)cc1C(=O)O [CP-625]
40 | CCCCOc1ccc(Nc2ccc(N(C)c3ccc(C4CCCCC4)cc3)cc2C)c(C(=O)O)c1 [CP-628]
32 | Cc1cc(N(C)c2ccc(C3CCCCC3)cc2)ccc1Nc1ccc(OC2CCCCC2)cc1C(=O)O [CP-634]
68 | Cc1cc(N(C)c2ccc(C3CCCCC3)cc2)ccc1Nc1cccc(C(=O)O)n1 [CP-636]
5 | CNCc1ccc(Nc2ccc(N(C)c3ccc(C4CCCCC4)cc3)cc2C)c(C(=O)O)c1 [CP-637]
67 | O=C(O)c1cccc(NC(=O)c2ccc(Nc3ccc(C4CCCCC4)cc3)cc2)c1 [CP-638]
69 | O=C(O)c1cccc(Nc2cc(Nc3ccc(C4CCCCC4)cc3)cc(C(F)(F)F)c2)n1 [CP-641]

inhibition at 10 µM [%] | Structure (SMILES)
55 | Cc1cc(C(=O)Nc2ccc(C3CCCCC3)cc2)ccc1Nc1cccc(C(=O)O)n1 [CP-642]
39 | Cc1cc(N(C)c2ccc(OCC(F)(F)F)cc2)ccc1Nc1cccc(C(=O)O)n1 [CP-646]
87 | Cc1cc(N(C)c2ccc(OC(F)(F)F)cc2)ccc1Nc1cccc(C(=O)O)n1 [CP-647]
99 | Cc1cc(Nc2ccc(C3CCCCC3)cc2)ccc1C(=O)Nc1cccc(C(=O)O)c1 [CP-649]
93 | COc1ccc(Nc2ccc(Nc3ccc(C45CC6CC(CC(C6)C4)C5)cc3Cl)cc2)nc1C(=O)O [CP-650]
85 | Cc1cc(C(=O)Nc2cccc(C(=O)O)c2)ccc1Nc1ccc(C2CCCCC2)cc1 [CP-651]
24 | CNC(=O)c1nc(Nc2ccc(N(C)c3ccc(C4CCCCC4)cc3)cc2C)ccc1S(=O)(=O)NC [CP-653]
90 | CNS(=O)(=O)c1ccc(Nc2ccc(N(C)c3ccc(C4CCCCC4)cc3)cc2C)nc1C(=O)O [CP-656]
46 | CN(c1ccc(Nc2cccc(C(=O)O)n2)cn1)c1ccc(C2CCCCC2)cc1Cl [CP-659]
45 | CN(c1ccc(C2CCCCC2)cc1)c1cc(C2CC2)c(Nc2cccc(C(=O)O)n2)cn1 [CP-663]
79 | O=C(Nc1ccc(C2CCCCC2)cc1Cl)c1cccc(Nc2ccccc2C(=O)O)c1 [CP-666]
97 | CNS(=O)(=O)c1ccc(Nc2ccc(N(C)c3ccc(C4CCCCC4)cc3Cl)cc2C)c(C(=O)O)c1 [CP-671]
55 | O=C(Nc1ccc(C2CCCCC2)cc1Cl)c1cccc(Nc2ccc(OC3CC3)cc2C(=O)O)c1 [CP-672]
83 | COc1ccc(Nc2cc(Nc3ccc(C4CCCCC4)cc3Cl)cc(C(F)(F)F)c2)nc1C(=O)O [CP-675]
97 | O=C(O)c1cccc(Nc2cc(Nc3ccc(C4CCCCC4)cc3Cl)cc(C(F)(F)F)c2)c1 [CP-676]
59 | Cc1cc(N(C)c2ccc(C3CCCCC3)cc2)ccc1Nc1ccc(C(=O)N2CC(C#N)C2)cc1C(=O)O [CP-678]
81 | Cc1cc(N(C)c2ccc(C3CCCCC3)cc2)ccc1Nc1ccc(C(=O)N2CC(C(N)=O)C2)cc1C(=O)O [CP-679]
8 | Cc1cc(N(C)c2ccc(C3CCCCC3)cc2Cl)ccc1Nc1cccc(C(=O)O)n1 [CP-681]
51 | O=C(O)c1cccc(Nc2cccc(Nc3ccc(C4CCCCC4)cc3Cl)c2)n1 [CP-682]
